Measured values taken from the supplement of paper PMC13380429.

What was measured:
Conditions in all cases: 72 h
Vero E6 [1] = experiment: relative viability EC50 (midpoint between 100% and the lowest measured viability); higher = less toxic
Caco-2 [2] = experiment: as above
Calu-3 [3] = experiment: as above
HepG2 [4] = experiment: drug sensitivity score (DSS) for viability; higher = more toxic; extreme values may be limits of the assay
Vero E6 [5] = experiment: as above
U2OS [6] = experiment: as above
Caco-2 [7] = experiment: as above
Calu-3 [8] = experiment: as above
HepG2 [9] = experiment: cell viability relative to DMSO; higher = less toxic
Vero E6 [10] = experiment: as above
U2OS [11] = experiment: as above
Caco-2 [12] = experiment: as above
Calu-3 [13] = experiment: as above
HepG2 [14] = experiment: relative viability EC50 (midpoint between 100% and the lowest measured viability); higher = less toxic
U2OS [15] = experiment: as above

Structure (SMILES)	relative viability EC50 (Vero E6 [1]) [µM]	relative viability EC50 (Caco-2 [2]) [µM]	relative viability EC50 (Calu-3 [3]) [µM]	drug sensitivity score (HepG2 [4])	drug sensitivity score (Vero E6 [5])	drug sensitivity score (U2OS [6])	drug sensitivity score (Caco-2 [7])	drug sensitivity score (Calu-3 [8])	cell viability (HepG2 [9]; 1 nM) [%]	cell viability (HepG2 [9]; 10 nM) [%]	cell viability (HepG2 [9]; 100 nM) [%]	cell viability (HepG2 [9]; 1000 nM) [%]	cell viability (HepG2 [9]; 10000 nM) [%]	cell viability (Vero E6 [10]; 1 nM) [%]	cell viability (Vero E6 [10]; 10 nM) [%]	cell viability (Vero E6 [10]; 100 nM) [%]	cell viability (Vero E6 [10]; 1000 nM) [%]	cell viability (Vero E6 [10]; 10000 nM) [%]	cell viability (U2OS [11]; 1 nM) [%]	cell viability (U2OS [11]; 10 nM) [%]	cell viability (U2OS [11]; 100 nM) [%]	cell viability (U2OS [11]; 1000 nM) [%]	cell viability (U2OS [11]; 10000 nM) [%]	cell viability (Caco-2 [12]; 1 nM) [%]	cell viability (Caco-2 [12]; 10 nM) [%]	cell viability (Caco-2 [12]; 100 nM) [%]	cell viability (Caco-2 [12]; 1000 nM) [%]	cell viability (Caco-2 [12]; 10000 nM) [%]	cell viability (Calu-3 [13]; 1 nM) [%]	cell viability (Calu-3 [13]; 10 nM) [%]	cell viability (Calu-3 [13]; 100 nM) [%]	cell viability (Calu-3 [13]; 1000 nM) [%]	cell viability (Calu-3 [13]; 10000 nM) [%]	relative viability EC50 (HepG2 [14]) [µM]	relative viability EC50 (U2OS [15]) [µM]
Cc1cc(CN2CCN(c3c(Br)cnc4nc(-c5ccc(N6CCN(C)CC6)cc5)[nH]c34)CC2)no1	> 10	> 10	> 10	6	1.5	0.8	0.6	0	101	98	106	65.6	59.9	96	96.6	94.1	83.6	84.2	98.7	106	98.1	102	74.8	101	99.3	99.7	96.8	84.7	97.8	103	94.2	114	105	–	–
Nc1nnc(Sc2ncc([N+](=O)[O-])s2)s1 [SU3327]	2.83	2.66	–	9.2	6.1	6.5	5.9	1.8	100	104	96.1	76.2	0	101	101	98.8	95.6	1.4	103	92.7	98	93.4	0.1	105	104	103	94.2	8.8	99.7	104	99.2	100	62.7	1.59	2.64
CCOC(=O)N1c2ccc(C(F)(F)F)cc2[C@@H](N(Cc2cc(C(F)(F)F)cc(C(F)(F)F)c2)C(=O)OC)C[C@H]1CC	> 10	> 10	–	1.5	0.4	–	0.1	2.8	99.3	106	94.3	93.6	75.5	98.3	99.1	96.2	98.4	85.2	–	–	–	–	–	108	108	100	101	87.2	96.4	98.9	98.4	86	69	> 10	–
O=C(O)C(O)Cc1ccc(O)c(O)c1 (configuration not stated) [sodium-danshensu]	> 10	–	–	0	0	0	–	–	99.5	121	99.8	92	104	101	102	103	95.7	97.6	95	96.2	96.3	94.8	87.7	–	–	–	–	–	–	–	–	–	–	> 10	> 10
CN(C)CCC(c1ccccc1)c1ccccn1 (configuration not stated) [pheniramine]	–	> 10	> 10	0	5.7	0	0	0	96.4	99.8	102	103	101	91.4	57.3	101	77.9	79.5	99.9	98.8	102	97.6	109	98.1	96.6	93.6	91.6	101	105	95.3	99	94.7	102	> 10	> 10
C#CC1(OCC(O)CN2CCN(c3cccc(C(F)(F)F)c3)CC2)CCCCC1 (configuration not stated) [terciprazine]	> 10	> 10	–	0	0.1	0	1	–	96	110	110	91.1	90.9	106	93.6	104	99.4	87	100	98.6	99	96.8	95	102	92.2	101	86.1	87	–	–	–	–	–	> 10	> 10
